ChEMBL document CHEMBL4819147, “Design, synthesis and biological evaluation of novel molecules as potent PARP-1 inhibitors” (Bioorg Med Chem Lett, 2021)

How the values were obtained:
HCC1937 = assay: Antiproliferative activity against BRCA1-deficient human HCC1937 cells assessed as cell growth inhibition; assay type: functional, cell-based
HCT-116 [1] = assay: Antiproliferative activity against BRCA2-deficient human HCT116 cells assessed as cell growth inhibition; assay type: functional, cell-based
[2] = biological target: T1, Poly [ADP-ribose] polymerase 1 (Homo sapiens, UniProt P09874); assay: Inhibition of PARP1 (unknown origin)
T1 sequence (P09874 whole entry): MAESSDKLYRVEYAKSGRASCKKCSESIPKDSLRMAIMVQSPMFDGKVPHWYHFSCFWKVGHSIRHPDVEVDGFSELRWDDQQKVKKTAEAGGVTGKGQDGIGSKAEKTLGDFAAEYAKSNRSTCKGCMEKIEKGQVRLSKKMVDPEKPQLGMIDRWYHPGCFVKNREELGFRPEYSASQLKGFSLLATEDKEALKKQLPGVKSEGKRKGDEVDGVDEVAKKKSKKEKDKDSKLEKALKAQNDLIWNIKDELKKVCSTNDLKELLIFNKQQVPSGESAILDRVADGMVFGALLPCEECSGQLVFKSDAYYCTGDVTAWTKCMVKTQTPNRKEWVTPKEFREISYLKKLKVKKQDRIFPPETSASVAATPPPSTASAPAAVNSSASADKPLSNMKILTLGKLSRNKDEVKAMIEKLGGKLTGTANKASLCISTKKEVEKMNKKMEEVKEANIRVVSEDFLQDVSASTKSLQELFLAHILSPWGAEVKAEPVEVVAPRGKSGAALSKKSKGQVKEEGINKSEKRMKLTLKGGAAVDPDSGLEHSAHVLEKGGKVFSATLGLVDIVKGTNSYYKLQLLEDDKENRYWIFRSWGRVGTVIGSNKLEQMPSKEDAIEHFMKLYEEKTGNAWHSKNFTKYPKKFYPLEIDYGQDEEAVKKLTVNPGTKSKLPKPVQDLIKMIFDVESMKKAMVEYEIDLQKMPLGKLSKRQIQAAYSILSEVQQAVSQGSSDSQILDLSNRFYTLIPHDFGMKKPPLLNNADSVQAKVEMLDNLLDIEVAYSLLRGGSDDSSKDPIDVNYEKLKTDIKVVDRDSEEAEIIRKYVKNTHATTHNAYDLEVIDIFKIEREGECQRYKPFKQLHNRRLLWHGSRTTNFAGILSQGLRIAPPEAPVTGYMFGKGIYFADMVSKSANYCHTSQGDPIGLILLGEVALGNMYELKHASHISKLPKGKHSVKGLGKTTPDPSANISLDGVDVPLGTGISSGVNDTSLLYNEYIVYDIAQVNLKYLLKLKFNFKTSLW

[3] = biological target: T1, Poly [ADP-ribose] polymerase 1; assay: Inhibition of PARP1 (unknown origin) at 10 nM relative to control
[4] = Octanol-water partition coefficient, logP of the compound; assay type: physicochemical
[5] = Half life in human liver microsomes incubated for 50 mins; assay type: ADME, Microsome
[6] = Intrinsic clearance in human liver microsomes incubated for 50 mins; assay type: ADME, Microsome
HCT-116 [7] = assay: Potency index, ratio of olaparibIC50 to test compound IC50 for antiproliferative activity against BRCA2-deficient human HCT116 cells assessed as cell growth inhibition; assay type: functional

| Compound | IC50 (HCC1937) [nM] | IC50 (HCT-116 [1]) [nM] | IC50 [2] [nM] | inhibition [3] [%] | other results |
| --- | --- | --- | --- | --- | --- |
| O=C(c1cc(Cc2n[nH]c(=O)c3ccccc23)ccc1F)N1CCn2c(nc3ccc(Cl)cc32)C1 | 11.7 | 11.9 | 0.4 |  |  |
| O=C(c1cc(Cc2n[nH]c(=O)c3ccccc23)ccc1F)N1CCn2c(nc3ccccc32)C1 |  |  | 0.49 |  |  |
| COc1nnc(Cc2ccc(F)c(C(=O)N3CCC(c4nc5c(C(N)=O)cncc5[nH]4)CC3)c2)c2ccccc12 |  |  |  | 40 |  |
| Cc1ccc2nc3n(c2c1)CCN(C(=O)c1cc(Cc2n[nH]c(=O)c4ccccc24)ccc1F)C3 | 11.6 | 10 | 0.47 |  |  |
| O=C(c1cc(Cc2n[nH]c(=O)c3ccccc23)ccc1F)N1CCn2c(nc3ccc(F)cc32)C1 | 12.7 | 6.62 | 0.51 |  | logP [4]: 4.83; half-life [5]: 2.89 h; CLH [6]: 40 µL/min/mg; Ratio IC50 (HCT-116 [7]): 885 |
| O=C(c1cc(Cc2n[nH]c(=O)c3ccccc23)ccc1F)N1CCN(C(=O)C2CC2)CC1 [OLAPARIB] | 13000 | 5860 |  |  | logP [4]: 2.79 |
| O=c1[nH]nc(Cc2ccc(F)c(CN3CCC(c4nc5ccccc5[nH]4)CC3)c2)c2ccccc12 |  |  |  | 47 |  |
| O=C(c1cc(Cc2n[nH]c(=O)c3ccccc23)ccc1F)N1CCN(c2nc3ccccc3[nH]2)CC1 | 610 | 490 | 0.19 | 100 | logP [4]: 4.15 |
| O=C(c1cc(Cc2n[nH]c(=O)c3ccccc23)ccc1F)N1CCC(c2nc3ccccc3[nH]2)CC1 |  |  | 0.63 | 100 |  |
| COc1ncc(C(N)=O)c2nc(C3CCN(C(=O)c4cc(Cc5n[nH]c(=O)c6ccccc56)ccc4F)CC3)[nH]c12 |  |  | 2.4 | 98 |  |
| NC(=O)c1cncc2[nH]c(C3CCN(C(=O)c4cc(Cc5n[nH]c(=O)c6ccccc56)ccc4F)CC3)nc12 | 130000 | 161000 | 0.23 |  |  |
| O=c1[nH]nc(Cc2ccc(F)c(CN3CCN(c4nc5ccccc5[nH]4)CC3)c2)c2ccccc12 |  |  |  | 42 |  |
| CCOc1ncc(C(N)=O)c2nc(C3CCN(C(=O)c4cc(Cc5n[nH]c(=O)c6ccccc56)ccc4F)CC3)[nH]c12 |  |  | 1.7 | 100 |  |
